Consider eleven compounds from patent US20200146289A1, “Herbicidal pyrimidine compounds” (BASF SE, priority 2017, published 2020).

Assay [1] relates to ECHCG. Description: greenhouse pre-emergence herbicidal test. The following applies: scale 0 to 100. Format: in vivo, Echinocloa crus-galli. The source says: (§1) The seeds of the test plants were sown separately for each species. For the pre-emergence treatment, the active ingredients, which had been suspended or emulsified in water, were applied directly after sowing by means of finely distributing nozzles. The containers were irrigated gently to promote germination and growth and subsequently covered with transparent plastic hoods until the plants had rooted. This cover caused uniform germination of the test plants, unless this had been impaired by the active ingredients. Depending on the species, the plants were kept at 10-25° C. or 20-35° C., respectively. The test period extended over 2 to 4 weeks. During this time, the plants were tended, and their response to the individual treatments was evaluated. Evaluation was carried out using a scale from 0 to 100. 100 means no emergence of the plants, or complete destruction of at least the aerial moieties, and 0 means no damage, or normal course of growth. A good herbicidal activity is given at values of at least 70 and a very good herbicidal activity is given at values of at least 85. The plants used in the greenhouse experiments were of the following species: [table]

In assay [2] the test system is ALOMY. The assay can be described thus: greenhouse pre-emergence herbicidal test. Format: in vivo, Alopecurus myosuroides. As to conditions: 125 g/ha.
From the text: as §1

The subject of the next assay is AVEFA. Description: greenhouse post-emergence herbicidal test. The assay is classed as in vivo, Avena fatua. As to conditions: for control of AVEFA: 500 g/ha; for herbicidal activity: AVEFA, scale 0 to 100. An excerpt:
(§2) The seeds of the test plants were sown separately for each species. For the post-emergence treatment, the test plants were first grown to a height of 3 to 15 cm, depending on the plant habit, and only then treated with the active ingredients which had been suspended or emulsified in water. For this purpose, the test plants were either sown directly and grown in the same containers, or they were first grown separately as seedlings and transplanted into the test containers a few days prior to treatment. Depending on the species, the plants were kept at 10-25° C. or 20-35° C., respectively. The test period extended over 2 to 4 weeks. During this time, the plants were tended, and their response to the individual treatments was evaluated. Evaluation was carried out using a scale from 0 to 100. 100 means no emergence of the plants, or complete destruction of at least the aerial moieties, and 0 means no damage, or normal course of growth. A good herbicidal activity is given at values of at least 70 and a very good herbicidal activity is given at values of at least 85. The plants used in the greenhouse experiments were of the following species: [table]

Assay [3] relates to ALOMY. The assay can be described thus: greenhouse post-emergence herbicidal test. The following applies: for herbicidal activity: ALOMY, scale 0 to 100; for control of ALOMY: 500 g/ha. Format: in vivo, Alopecurus myosuroides.
From the text: as §2

The test system of assay [4] is ECHCG. The assay can be described thus: greenhouse post-emergence herbicidal test. The assay is classed as in vivo, Echinocloa crus-galli. As to conditions: scale 0 to 100.
From the text: as §2

In the next assay the test system is APESV. Description: greenhouse pre-emergence herbicidal test. Format: in vivo, Apera spica-venti. The following applies: for control of APESV: 125 g/ha; for herbicidal activity: APESV, scale 0 to 100.
From the text: as §1

For another assay, the system named is AMARE. The assay can be described thus: greenhouse post-emergence herbicidal test. Format: in vivo, Amaranthus retroflexus. As to conditions: for control of AMARE: 500 g/ha; for herbicidal activity: 1000 g/ha, AMARE, scale 0 to 100.
From the text: as §2

The test system of assay [5] is POAAN. The assay can be described thus: greenhouse post-emergence herbicidal test. The assay is classed as in vivo, Poa annua. The following applies: 2000 g/ha, scale 0 to 100.
From the text: as §2

Assay [6] deals with AGSST. The assay can be described thus: greenhouse pre-emergence herbicidal test. The assay is classed as in vivo, Agrostis stolonifera. As to conditions: 2000 g/ha, scale 0 to 100.
From the text: as §1

Assay [7] has as its system POAAN. The assay can be described thus: greenhouse pre-emergence herbicidal test. The assay is classed as in vivo, Poa annua. As to conditions: 2000 g/ha, scale 0 to 100.
From the text: as §1

Assay [8] relates to AGSST. Description: greenhouse post-emergence herbicidal test. The assay is classed as in vivo, Agrostis stolonifera. As to conditions: 2000 g/ha, scale 0 to 100.
From the text: as §2

In another assay the test system is SETVI. Description: greenhouse post-emergence herbicidal test. Format: in vivo, Setaria viridis. As to conditions: 1000 g/ha, scale 0 to 100.
From the text: as §2

The subject of the next assay is MATIN. The assay can be described thus: greenhouse post-emergence herbicidal test. Format: in vivo, Matricaria inodora. As to conditions: 2000 g/ha, scale 0 to 100.
From the text: as §2

Molecules are shown by their SMILES.

Regarding `COC(=O)c1nc(C2CC2)ncc1-c1cc(C(F)(F)F)ccc1Cl` [Ex.3, Methyl 5-[2-chloro-5-(trifluoromethyl)phenyl]-2-cyclopropyl-pyrimidine-4-carboxylate], the herbicidal activity result in the assay on ECHCG [1] (1000 g/ha), in the assay on AVEFA (1000 g/ha), in the assay on ALOMY [3] (1000 g/ha), in the assay on ECHCG [4] (1000 g/ha) and in the assay on APESV (1000 g/ha) was “very good (a very good herbicidal activity is given at values of at least 85)” in each case. Further, the “control of ALOMY” value in the assay on ALOMY [2] was 85%. For the same compound, the “control of AVEFA” value in the assay on AVEFA is recorded as 85%. Besides, in the assay with APESV, the “control of APESV” value amounted to 90%.

As for `O=C(O)c1nc(C2CC2)ncc1-c1cc(C(F)(F)F)ccc1Cl` [Ex.4, 5-[2-chloro-5-(trifluoromethyl)phenyl]-2-cyclopropyl-pyrimidine-4-carboxylic acid], the herbicidal activity entry in the assay on ECHCG [1] (1000 g/ha), in the assay with ALOMY [3] (1000 g/ha), in the assay on ECHCG [4] (1000 g/ha), in the assay with AMARE and in the assay on APESV (1000 g/ha) was “very good (a very good herbicidal activity is given at values of at least 85)” throughout. Also, the “control of ALOMY” value with ALOMY [2] and in the assay on ALOMY [3] was 90% throughout. Besides, the “control of AVEFA” value with AVEFA was found to be 90%. For the same compound, the “control of AMARE” value with AMARE came out at 80%. The “control of APESV” value with APESV stood at 100%.

In the case of `COC(=O)c1nc(C2CC2)ncc1-c1cc(C(F)(F)F)ccc1Br` [Ex.5], the herbicidal activity entry in the assay on POAAN [5] is recorded as “very good (a very good herbicidal activity is given at values of at least 85)”; in the assay on AGSST [6] it was “good (A good herbicidal activity is given at values of at least 70)”; with POAAN [7], “very good (a very good herbicidal activity is given at values of at least 85)”; with AGSST [8], “very good (a very good herbicidal activity is given at values of at least 85)”.

Turning to `O=C(O)c1nc(C2CC2)ncc1-c1cc(C(F)(F)F)ccc1Br` [Ex.6], the herbicidal activity entry with ECHCG [1] (1000 g/ha), in the assay on SETVI, with ALOMY [3] (1000 g/ha), in the assay with ECHCG [4] (1000 g/ha) and in the assay on APESV (1000 g/ha) was “very good (a very good herbicidal activity is given at values of at least 85)” throughout.

Consider `COC(=O)c1nc(C2CC2)ncc1-c1cc(C(F)F)ccc1Cl` [Ex.7], for which the herbicidal activity result in the assay with ECHCG [1] (1000 g/ha), in the assay on AVEFA (1000 g/ha), with ALOMY [3] (1000 g/ha), in the assay with ECHCG [4] (1000 g/ha) and in the assay with APESV (1000 g/ha) was “very good (a very good herbicidal activity is given at values of at least 85)” throughout. For the same compound, the “control of AVEFA” value with AVEFA worked out at 90%.

As for `O=C(O)c1nc(C2CC2)ncc1-c1cc(C(F)F)ccc1Cl` [Ex.8], the herbicidal activity entry in the assay on ECHCG [1] (1000 g/ha), in the assay on SETVI, in the assay on ALOMY [3] (1000 g/ha), in the assay with AMARE and with APESV (1000 g/ha) was “very good (a very good herbicidal activity is given at values of at least 85)” in each case. Besides, the “control of AVEFA” value in the assay on AVEFA is recorded as 90%. The “control of ALOMY” value in the assay on ALOMY [3] is listed as 90%. In the assay on AMARE, the “control of AMARE” value was 100%.

As to `O=C(O)c1nc(C2CC2)ncc1-c1cc(C(F)(F)F)cc(Br)c1Br` [Ex.9], the herbicidal activity result is recorded as “very good (a very good herbicidal activity is given at values of at least 85)” with POAAN [5], “very good (a very good herbicidal activity is given at values of at least 85)” in the assay with MATIN, “very good (a very good herbicidal activity is given at values of at least 85)” in the assay with POAAN [7] and “good (A good herbicidal activity is given at values of at least 70)” with APESV (2000 g/ha).

In the case of `COC(=O)c1nc(C2CC2)ncc1-c1cc(OC(F)(F)F)ccc1F` [Ex.11], the herbicidal activity entry in the assay on ECHCG [1] (2000 g/ha), in the assay with AVEFA (2000 g/ha), with ALOMY [3] (2000 g/ha) and with APESV (2000 g/ha) was “very good (a very good herbicidal activity is given at values of at least 85)” throughout.

For `O=C(O)c1nc(C2CC2)ncc1-c1cc(OC(F)(F)F)ccc1F` [Ex.12], the herbicidal activity result with AVEFA (2000 g/ha) is recorded as “good (A good herbicidal activity is given at values of at least 70)”; in the assay on ALOMY [3] (2000 g/ha) it was “very good (a very good herbicidal activity is given at values of at least 85)”; in the assay with APESV (2000 g/ha), “very good (a very good herbicidal activity is given at values of at least 85)”.

Take `COC(=O)c1nc(C2CC2)ncc1-c1cc(C(F)(F)F)ccc1C` [Ex.13]: the herbicidal activity result in the assay with ECHCG [1] (2000 g/ha), in the assay with ALOMY [3] (2000 g/ha) and in the assay on APESV (2000 g/ha) was “very good (a very good herbicidal activity is given at values of at least 85)” throughout.

In the case of `Cc1ccc(C(F)(F)F)cc1-c1cnc(C2CC2)nc1C(=O)O` [Ex.14], the herbicidal activity result in the assay on ECHCG [1] (2000 g/ha), with AVEFA (2000 g/ha), with ALOMY [3] (2000 g/ha), in the assay with ECHCG [4] (2000 g/ha) and with APESV (2000 g/ha) was “very good (a very good herbicidal activity is given at values of at least 85)” each time.
